# Experimental data taken from patent publication US20160058872A1, “IMIDE-BASED MODULATORS OF PROTEOLYSIS AND ASSOCIATED METHODS OF USE” (Arvinas, Inc., priority 2014, published 2016).
# Test system: c-Myc
# Test: c-Myc protein level by immunoblot in BL cell lines
# Assay type: cell-based
# Conditions: 24 hours, washout
# Experimental: Cultured cells were collected in lysis buffer containing 40 mM HEPES (pH 7.4), 140 mM NaCl, 2.5 mM EDTA, 1% NP-40, 0.1% SDS and protease inhibitor cocktail. After 10 minutes of centrifugation (14000 rpm), supernatant was collected for protein concentration determination by BCA method and subjected for immunoblotting by standard protocol. Western blot results were visualized using Bio-Rad Clarity ECL Western Blotting Substrate on Bio-Rad ChemiDoc™ MP imaging system.
# A separate set of cells were treated in the same manner, except that DMSO was used in place of the inhibitor. Following treatment, cell lysates were collected and analyzed by immunoblot for c-Myc and Actin.
# Cells were re-seeded and incubated without inhibitor for 0 hr, 0.5 hr, 1.0 hr, 2.0 hr, 3.0 hr, 4.0 hr, and 6.0 hr. Cell lysates were then collected at the various time points and analyzed by immunoblot for c-Myc and Actin. In a parallel control experiment, NAMALWA cells were treated in the same manner, except DMSO was used in place of JQ1.
# After treatment, the cells were either lysed (to evaluate the suppression of c-Myc by the inhibitors) or washed to remove the inhibitor, re-seeded, and incubated without inhibitor for 4.0 hours (to evaluate the reversibility of c-Myc suppression). Cell lysates were collected and analyzed by immunoblot for c-Myc and Actin.
# Following treatment, cell lysates were collected and analyzed by immunoblot for BRD4, c-Myc and Actin.
# Cells were re-seeded in fresh medium and incubated without any compound for 0 hr, 2.0 hr, 4.0 hr, 6.0 hr, and 24.0 hr. In a parallel control experiment, cells were treated in the same manner, except DMSO was used in place of inhibitor. Lysates were collected and analyzed by immunoblot for BRD4, c-Myc, and Actin.
smiles,measurement,setting,value
Cc1sc2c(c1C)C(c1ccc(Cl)cc1)=N[C@@H](CC(=O)OC(C)(C)C)c1nnc(C)n1-2 [JQ1],time to recovery of c-Myc to control level after removal,"NAMALWA, 1.0 μM",≤ 4 h
same,time to return of c-Myc to control level post removal,"NAMALWA, after 1000 nM",≤ 3.0 h
same,time to significant c-Myc increase after removal,"Ramos, after 1000 nM",≤ 4.0 h
